Several values for one entry are separate records, joined by “and”; a condition that tells them apart may be missing. Equal entries are not always repeated. Results filed as inconclusive are left out.

Consider 17 compounds from PubChem BioAssay AID296 (DTP/NCI, 2004).

This assay relates to MX-1 breast xenograft, nude mice, tumor weight T/C. The experiment in a line: NCI In Vivo Anticancer Drug Screen. Data for tumor model Human Mammary Carcinoma MX-1 Xenograft (intrarenal inoculation) in NU/NU Swiss (nude) mice. Conditions: endpoint: mean tumor weight change, higher = larger tumour. The essentials: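 Mice carrying the implanted tumor receive either test agent or vehicle. Tumor size or survival is then recorded for both groups. Results are stated as the treated-to-control quotient.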

[1] abbreviates: dose: 300.0 mg/kg/injection, schedule: Q04DX003 (sc), vehicle: Klucel (hydroxypropylcellulose) (HPC).
The mark [2] stands for this setting: dose: 600.0 mg/kg/injection, schedule: Q04DX003 (sc), vehicle: Klucel (hydroxypropylcellulose) (HPC).
[3] abbreviates: dose: 1200.0 mg/kg/injection, schedule: Q04DX003 (sc), vehicle: Klucel (hydroxypropylcellulose) (HPC).
The mark [4] stands for this setting: dose: 2400.0 mg/kg/injection, schedule: Q04DX003 (sc), vehicle: Klucel (hydroxypropylcellulose) (HPC).
[5] abbreviates: dose: 300.0 mg/kg/injection, schedule: Q04DX003 (sc), vehicle: saline with Tween-80.

Turning to `CC1OC1C(=O)C1(O)C(C)C(O)C23OC2(C(O)c2c(O)cccc2C3=O)C1O` (stereo not given), the T/C is 102 % of control (dose: 12.0 mg/kg/injection, schedule: Q04DX003 (sc), vehicle: Klucel (hydroxypropylcellulose) (HPC)); 83 % of control (dose: 24.0 mg/kg/injection, schedule: Q04DX003 (sc), vehicle: Klucel (hydroxypropylcellulose) (HPC)); 83 % of control (dose: 48.0 mg/kg/injection, schedule: Q04DX003 (sc), vehicle: Klucel (hydroxypropylcellulose) (HPC)).

For the compound `OCCOCCN1CCN(CCCN2c3ccccc3Sc3ccc(C(F)(F)F)cc32)CC1`, the T/C was 111 % of control (dose: 3.0 mg/kg/injection, schedule: Q01DX010 (sc), vehicle: saline); 41 % of control and 55 % of control (dose: 24.0 mg/kg/injection, schedule: Q01DX010 (sc), vehicle: saline); 39 % of control (dose: 48.0 mg/kg/injection, schedule: Q01DX010 (sc), vehicle: saline).

As for `CCCCOCN(COCCCC)C(C)Cc1ccccc1` (stereo not given), the T/C is, setting by setting: (dose: 200.0 mg/kg/injection, schedule: Q04DX003 (sc), vehicle: saline with Tween-80) 70 % of control; (dose: 400.0 mg/kg/injection, schedule: Q04DX003 (sc), vehicle: saline with Tween-80) 52 % of control; (dose: 800.0 mg/kg/injection, schedule: Q04DX003 (sc), vehicle: saline with Tween-80) 66 % of control.

Consider `CN1CCc2c(c3ccccc3c3ccccc23)C1`, for which the T/C reads like this: (dose: 150.0 mg/kg/injection, schedule: Q04DX003 (sc), vehicle: Klucel (hydroxypropylcellulose) (HPC)) 30 % of control; under setting [1], 45 % of control.

Turning to `O=C1C(NCC(O)CO)=C(N2CC2)C(=O)C(NCC(O)CO)=C1N1CC1` (stereo not given), the T/C was 76 % of control (dose: 4.0 mg/kg/injection, schedule: Q04DX003 (ip), vehicle: saline); 69 % of control (dose: 8.0 mg/kg/injection, schedule: Q04DX003 (ip), vehicle: saline); 46 % of control (dose: 16.0 mg/kg/injection, schedule: Q04DX003 (ip), vehicle: saline).

Turning to `CCOC(=O)C1=C(C#N)C2(CCC(OCc3ccccc3)CC2)C(=O)O1` (stereo not given), the T/C (dose: 200.0 mg/kg/injection, schedule: Q04DX003 (sc), vehicle: suspension in saline) is 81 % of control; the T/C (dose: 400.0 mg/kg/injection, schedule: Q04DX003 (sc), vehicle: suspension in saline) was 119 % of control; the T/C (dose: 800.0 mg/kg/injection, schedule: Q04DX003 (sc), vehicle: suspension in saline) is 52 % of control; the T/C (dose: 1600.0 mg/kg/injection, schedule: Q04DX003 (sc), vehicle: suspension in saline) is 62 % of control.

With `O=C(CC(=O)C(F)(F)F)c1csc2ccccc12`, the T/C by setting is: under setting [1], 87 % of control; under setting [2], 91 % of control; under setting [3], 111 % of control; under setting [4], 99 % of control.

`O=CC(=O)c1ccc(O)cc1`: the T/C is, setting by setting: (dose: 150.0 mg/kg/injection, schedule: Q04DX003 (sc), vehicle: saline) 95 % of control; (dose: 300.0 mg/kg/injection, schedule: Q04DX003 (sc), vehicle: saline) 69 % of control.

`COc1ccc2c(ccc3oc([N+](=O)[O-])cc32)c1`: the T/C runs as follows: under setting [1], 99 % of control; under setting [2], 72 % of control; under setting [3], 71 % of control; under setting [4], 36 % of control.

With `N[C@H](C(=O)O)[C@@H]1CC(Cl)=NO1`, the T/C by setting is: (dose: 4.0 mg/kg/injection, schedule: Q01DX010 (sc), vehicle: suspension in saline) -87 % of control; (dose: 4.0 mg/kg/injection, schedule: Q02DX005 (sc), vehicle: saline) -33 % of control; (dose: 4.0 mg/kg/injection, schedule: Q04DX003 (sc), vehicle: saline) 52 % of control; (dose: 8.0 mg/kg/injection, schedule: Q01DX010 (sc), vehicle: saline) -100 % of control and -89 % of control and -76 % of control; (dose: 8.0 mg/kg/injection, schedule: Q01DX010 (sc), vehicle: suspension in saline) -86 % of control; (dose: 8.0 mg/kg/injection, schedule: Q02DX005 (sc), vehicle: saline) -59 % of control. Moreover, the T/C is, setting by setting: (dose: 8.0 mg/kg/injection, schedule: Q04DX003 (sc), vehicle: saline) 25 % of control; (dose: 16.0 mg/kg/injection, schedule: Q01DX010 (sc), vehicle: suspension in saline) -82 % of control; (dose: 16.0 mg/kg/injection, schedule: Q02DX005 (sc), vehicle: saline) -31 % of control; (dose: 16.0 mg/kg/injection, schedule: Q04DX003 (sc), vehicle: saline) 7 % of control; (dose: 32.0 mg/kg/injection, schedule: Q01DX010 (sc), vehicle: suspension in saline) -90 % of control; (dose: 32.0 mg/kg/injection, schedule: Q04DX003 (sc), vehicle: saline) 5 % of control.

`CCOC(=O)Nc1cc2c(c(N)n1)N=C(c1ccc(Cl)cc1Cl)CN2`: the T/C is 79 % of control (dose: 37.5 mg/kg/injection, schedule: Q04DX003 (sc), vehicle: saline with Tween-80); 94 % of control (dose: 75.0 mg/kg/injection, schedule: Q04DX003 (sc), vehicle: saline with Tween-80); 103 % of control and 117 % of control (dose: 150.0 mg/kg/injection, schedule: Q04DX003 (sc), vehicle: saline with Tween-80); 81 % of control and 84 % of control under setting [5].

`Cc1noc(N)c1N`: the T/C was 102 % of control (dose: 300.0 mg/kg/injection, schedule: Q04DX003 (sc), vehicle: water); 97 % of control (dose: 600.0 mg/kg/injection, schedule: Q04DX003 (sc), vehicle: water); 102 % of control (dose: 1200.0 mg/kg/injection, schedule: Q04DX003 (sc), vehicle: water); 92 % of control (dose: 2400.0 mg/kg/injection, schedule: Q04DX003 (sc), vehicle: water).

With `NCc1cc(O)c(O)c(O)c1`, the T/C (dose: 150.0 mg/kg/injection, schedule: Q04DX003 (ip), vehicle: saline) is 115 % of control; the T/C (dose: 300.0 mg/kg/injection, schedule: Q04DX003 (ip), vehicle: saline) was 91 % of control; the T/C (dose: 600.0 mg/kg/injection, schedule: Q04DX003 (ip), vehicle: saline) was 88 % of control.

As to `NC1=NCN(C2OC(CO)C(O)C2O)C(=O)N1` (stereo not given), the T/C is, setting by setting: (dose: 12.5 mg/kg/injection, schedule: Q01DX010 (sc), vehicle: saline) 86 % of control; (dose: 25.0 mg/kg/injection, schedule: Q01DX010 (sc), vehicle: saline) 32 % of control and 42 % of control; (dose: 25.0 mg/kg/injection, schedule: Q04DX003 (sc), vehicle: saline) 34 % of control; (dose: 50.0 mg/kg/injection, schedule: Q01DX010 (sc), vehicle: saline) 3 % of control and 4 % of control; (dose: 75.0 mg/kg/injection, schedule: Q04DX003 (sc), vehicle: saline) 55 % of control; (dose: 100.0 mg/kg/injection, schedule: Q01DX010 (sc), vehicle: saline) 6 % of control. For the same compound, the T/C is 14 % of control and 30 % of control (dose: 100.0 mg/kg/injection, schedule: Q04DX003 (sc), vehicle: saline); 8 % of control (dose: 200.0 mg/kg/injection, schedule: Q04DX003 (sc), vehicle: saline); 2 % of control (dose: 400.0 mg/kg/injection, schedule: Q04DX003 (sc), vehicle: saline).

For the compound `COCC(O)Cn1ccnc1[N+](=O)[O-]` (stereo not given), the T/C (dose: 300.0 mg/kg/injection, schedule: Q04DX003 (sc), vehicle: suspension in saline) was 202 % of control; the T/C (dose: 600.0 mg/kg/injection, schedule: Q04DX003 (sc), vehicle: suspension in saline) is 95 % of control; the T/C (dose: 1200.0 mg/kg/injection, schedule: Q04DX003 (sc), vehicle: suspension in saline) is 108 % of control.

With `CCCCC(=O)OCC(=O)[C@]1(O)Cc2c(O)c3c(c(O)c2[C@@H](OC2CC(NC(=O)C(F)(F)F)C(O)C(C)O2)C1)C(=O)c1c(OC)cccc1C3=O` (stereo not given in full), the T/C reads like this: (dose: 64.0 mg/kg/injection, schedule: Q01DX010 (sc), vehicle: distilled water + Tween-80) 91 % of control; (dose: 128.0 mg/kg/injection, schedule: Q01DX010 (sc), vehicle: distilled water + Tween-80) 56 % of control; (dose: 256.0 mg/kg/injection, schedule: Q01DX010 (sc), vehicle: distilled water + Tween-80) 34 % of control.

For `Cc1c2cc(Cl)c3ccccc3c2c[n+]2ccccc12`, the T/C by setting is: under setting [5], 82 % of control; (dose: 600.0 mg/kg/injection, schedule: Q04DX003 (sc), vehicle: saline with Tween-80) 67 % of control; (dose: 1200.0 mg/kg/injection, schedule: Q04DX003 (sc), vehicle: saline with Tween-80) 44 % of control; (dose: 2400.0 mg/kg/injection, schedule: Q04DX003 (sc), vehicle: saline with Tween-80) 76 % of control.
